In PubChem BioAssay AID1963984 (Molecular Pharmacology Branch, DTP, NCI, 2024):

Tested on: 233499-124-R-J3-PDC spheroids with HUVEC/MSC, viability
Experiment: Anticancer human tumor 233499-124-R-J3-PDC patient-derived colon adenocarcinoma cell line growth inhibition [PI3K]
Settings: for IC50: curve of first compound; for viability, T/C: stronger effect = lower value
Procedure, shortened: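 Targeted small molecules plus PI3K inhibitors, half-log dose series from Cmax (default top 10 microM), were applied to heterotypic spheroids of cancer cells with HUVEC and MSCs. Viability indicated growth inhibition.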

[1] = second compound 0.00316 µM, first compound 0.000316 µM
[2] = second compound 0.00316 µM, first compound 0.001 µM
[3] = second compound 0.00316 µM, first compound 0.00316 µM
[4] = second compound 0.00316 µM, first compound 0.01 µM
[5] = second compound 0.00316 µM, first compound 0.0316 µM
[6] = second compound 0.00316 µM, first compound 0.1 µM
[7] = second compound 0.01 µM, first compound 0.000316 µM
[8] = second compound 0.01 µM, first compound 0.001 µM
[9] = second compound 0.01 µM, first compound 0.00316 µM
[10] = second compound 0.01 µM, first compound 0.01 µM
[11] = second compound 0.01 µM, first compound 0.0316 µM
[12] = second compound 0.01 µM, first compound 0.1 µM
[13] = second compound 0.0316 µM, first compound 0.000316 µM
[14] = second compound 0.0316 µM, first compound 0.001 µM
[15] = second compound 0.0316 µM, first compound 0.00316 µM
[16] = second compound 0.0316 µM, first compound 0.01 µM
[17] = second compound 0.0316 µM, first compound 0.0316 µM
[18] = second compound 0.0316 µM, first compound 0.1 µM
[19] = second compound 0.1 µM, first compound 0.000316 µM
[20] = second compound 0.1 µM, first compound 0.001 µM
[21] = second compound 0.1 µM, first compound 0.00316 µM
[22] = second compound 0.1 µM, first compound 0.01 µM
[23] = second compound 0.1 µM, first compound 0.0316 µM
[24] = second compound 0.1 µM, first compound 0.1 µM
[25] = second compound 0.316 µM, first compound 0.000316 µM
[26] = second compound 0.316 µM, first compound 0.001 µM
[27] = second compound 0.316 µM, first compound 0.00316 µM
[28] = second compound 0.316 µM, first compound 0.01 µM
[29] = second compound 0.316 µM, first compound 0.0316 µM
[30] = second compound 0.316 µM, first compound 0.1 µM
[31] = second compound 1 µM, first compound 0.000316 µM
[32] = second compound 1 µM, first compound 0.001 µM
[33] = second compound 1 µM, first compound 0.00316 µM
[34] = second compound 1 µM, first compound 0.01 µM
[35] = second compound 1 µM, first compound 0.0316 µM
[36] = second compound 1 µM, first compound 0.1 µM
[37] = second compound 0.00316 µM, first compound 0.316 µM
[38] = second compound 0.00316 µM, first compound 1 µM
[39] = second compound 0.00316 µM, first compound 3.16 µM
[40] = second compound 0.00316 µM, first compound 10 µM
[41] = second compound 0.01 µM, first compound 0.316 µM
[42] = second compound 0.01 µM, first compound 1 µM
[43] = second compound 0.01 µM, first compound 3.16 µM
[44] = second compound 0.01 µM, first compound 10 µM
[45] = second compound 0.0316 µM, first compound 0.316 µM
[46] = second compound 0.0316 µM, first compound 1 µM
[47] = second compound 0.0316 µM, first compound 3.16 µM
[48] = second compound 0.0316 µM, first compound 10 µM
[49] = second compound 0.1 µM, first compound 0.316 µM
[50] = second compound 0.1 µM, first compound 1 µM
[51] = second compound 0.1 µM, first compound 3.16 µM
[52] = second compound 0.1 µM, first compound 10 µM
[53] = second compound 0.316 µM, first compound 0.316 µM
[54] = second compound 0.316 µM, first compound 1 µM
[55] = second compound 0.316 µM, first compound 3.16 µM
[56] = second compound 0.316 µM, first compound 10 µM
[57] = second compound 1 µM, first compound 0.316 µM
[58] = second compound 1 µM, first compound 1 µM
[59] = second compound 1 µM, first compound 3.16 µM
[60] = second compound 1 µM, first compound 10 µM
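Note: spheroids exposed to agents for seven days before readout.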
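Throughout, for viability, T/C: percent viability relative to DMSO vehicle control taken as 100%.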

CC(C)n1nc(-c2ccc3oc(N)nc3c2)c2c(N)ncnc21 + COc1c(OCCCN2CCOCC2)ccc2c3n(c(=NC(=O)c4cnc(N)nc4)nc12)CCN3
IC50 (second compound 0.00316 µM): > 100 nM
IC50 (second compound 0.01 µM): > 100 nM
IC50 (second compound 0.0316 µM): 54.9 nM
IC50 (second compound 0.1 µM): 5.17 nM
IC50 (second compound 0.316 µM): < 0.316 nM
IC50 (second compound 1 µM): < 0.316 nM
viability, T/C [1]: 98.3%
viability, T/C [2]: 90.8%
viability, T/C [3]: 74.6%
viability, T/C [4]: 80.3%
viability, T/C [5]: 83%
viability, T/C [6]: 65.1%
viability, T/C [7]: 84.1%
viability, T/C [8]: 76.4%
viability, T/C [9]: 87.8%
viability, T/C [10]: 80.5%
viability, T/C [11]: 62.3%
viability, T/C [12]: 60.2%
viability, T/C [13]: 79.9%
viability, T/C [14]: 86.5%
viability, T/C [15]: 73.7%
viability, T/C [16]: 80.6%
viability, T/C [17]: 71%
viability, T/C [18]: 27%
viability, T/C [19]: 77.5%
viability, T/C [20]: 51.7%
viability, T/C [21]: 56%
viability, T/C [22]: 46.8%
viability, T/C [23]: 38.7%
viability, T/C [24]: 16.9%
viability, T/C [25]: 28.4%
viability, T/C [26]: 31.3%
viability, T/C [27]: 33.6%
viability, T/C [28]: 18.6%
viability, T/C [29]: 17.2%
viability, T/C [30]: 9.14%
viability, T/C [31]: 7.93%
viability, T/C [32]: 6.08%
viability, T/C [33]: 9.7%
viability, T/C [34]: 5.56%
viability, T/C [35]: 8.2%
viability, T/C [36]: 2.93%

CC1(C)CCC(CN2CCN(c3ccc(C(=O)NS(=O)(=O)c4ccc(NCC5CCOCC5)c([N+](=O)[O-])c4)c(Oc4cnc5[nH]ccc5c4)c3)CC2)=C(c2ccc(Cl)cc2)C1 + COc1c(OCCCN2CCOCC2)ccc2c3n(c(=NC(=O)c4cnc(N)nc4)nc12)CCN3
IC50 (second compound 0.00316 µM): > 10000 nM
IC50 (second compound 0.01 µM): > 10000 nM
IC50 (second compound 0.0316 µM): > 10000 nM
IC50 (second compound 0.1 µM): 8160 nM
IC50 (second compound 0.316 µM): < 31.6 nM
IC50 (second compound 1 µM): < 31.6 nM
viability, T/C [5]: 93.8%
viability, T/C [6]: 108%
viability, T/C [37]: 113%
viability, T/C [38]: 101%
viability, T/C [39]: 99%
viability, T/C [40]: 100%
viability, T/C [11]: 96.7%
viability, T/C [12]: 104%
viability, T/C [41]: 92%
viability, T/C [42]: 108%
viability, T/C [43]: 101%
viability, T/C [44]: 93.1%
viability, T/C [17]: 96.5%
viability, T/C [18]: 95%
viability, T/C [45]: 86.4%
viability, T/C [46]: 78.7%
viability, T/C [47]: 80.1%
viability, T/C [48]: 61.2%
viability, T/C [23]: 60.6%
viability, T/C [24]: 73.3%
viability, T/C [49]: 55.5%
viability, T/C [50]: 62.2%
viability, T/C [51]: 53.3%
viability, T/C [52]: 49.5%
viability, T/C [29]: 19.8%
viability, T/C [30]: 28.9%
viability, T/C [53]: 15.3%
viability, T/C [54]: 40.2%
viability, T/C [55]: 17.5%
viability, T/C [56]: 26.6%
viability, T/C [35]: 7.27%
viability, T/C [36]: 2.35%
viability, T/C [57]: 15.9%
viability, T/C [58]: 13.9%
viability, T/C [59]: 6.93%
viability, T/C [60]: 13.2%

CCCS(=O)(=O)Nc1ccc(F)c(C(=O)c2c[nH]c3ncc(-c4ccc(Cl)cc4)cc23)c1F + COc1c(OCCCN2CCOCC2)ccc2c3n(c(=NC(=O)c4cnc(N)nc4)nc12)CCN3
IC50 (second compound 0.00316 µM): 5000 nM
IC50 (second compound 0.01 µM): 5780 nM
IC50 (second compound 0.0316 µM): 5030 nM
IC50 (second compound 0.1 µM): 3410 nM
IC50 (second compound 0.316 µM): < 31.6 nM
IC50 (second compound 1 µM): < 31.6 nM
viability, T/C [5]: 84%
viability, T/C [6]: 87.8%
viability, T/C [37]: 101%
viability, T/C [38]: 94.1%
viability, T/C [39]: 79.6%
viability, T/C [40]: 5.08%
viability, T/C [11]: 88.4%
viability, T/C [12]: 93.8%
viability, T/C [41]: 88.9%
viability, T/C [42]: 83%
viability, T/C [43]: 90.1%
viability, T/C [44]: 14.7%
viability, T/C [17]: 89.7%
viability, T/C [18]: 78.3%
viability, T/C [45]: 84.2%
viability, T/C [46]: 74.5%
viability, T/C [47]: 77.6%
viability, T/C [48]: 9.06%
viability, T/C [23]: 50.2%
viability, T/C [24]: 56%
viability, T/C [49]: 54.5%
viability, T/C [50]: 51.5%
viability, T/C [51]: 52.7%
viability, T/C [52]: 12.5%
viability, T/C [29]: 33.7%
viability, T/C [30]: 35.8%
viability, T/C [53]: 38.2%
viability, T/C [54]: 27.2%
viability, T/C [55]: 23.6%
viability, T/C [56]: 2.75%
viability, T/C [35]: 10.5%
viability, T/C [36]: 9.36%
viability, T/C [57]: 6.83%
viability, T/C [58]: 18.9%
viability, T/C [59]: 8.57%
viability, T/C [60]: 1.66%

C[C@@H](NC(=O)c1ncnc(N)c1Cl)c1ncc(C(=O)Nc2cc(C(F)(F)F)c(Cl)cn2)s1 + COc1c(OCCCN2CCOCC2)ccc2c3n(c(=NC(=O)c4cnc(N)nc4)nc12)CCN3
IC50 (second compound 0.00316 µM): > 10000 nM
IC50 (second compound 0.01 µM): > 10000 nM
IC50 (second compound 0.0316 µM): > 10000 nM
IC50 (second compound 0.1 µM): > 10000 nM
IC50 (second compound 0.316 µM): < 31.6 nM
IC50 (second compound 1 µM): < 31.6 nM
viability, T/C [5]: 97.6%
viability, T/C [6]: 127%
viability, T/C [37]: 126%
viability, T/C [38]: 103%
viability, T/C [39]: 120%
viability, T/C [40]: 104%
viability, T/C [11]: 94.1%
viability, T/C [12]: 103%
viability, T/C [41]: 105%
viability, T/C [42]: 117%
viability, T/C [43]: 121%
viability, T/C [44]: 123%
viability, T/C [17]: 113%
viability, T/C [18]: 107%
viability, T/C [45]: 109%
viability, T/C [46]: 96.1%
viability, T/C [47]: 107%
viability, T/C [48]: 106%
viability, T/C [23]: 85.6%
viability, T/C [24]: 79.4%
viability, T/C [49]: 85.5%
viability, T/C [50]: 69.8%
viability, T/C [51]: 97.9%
viability, T/C [52]: 99.3%
viability, T/C [29]: 44.8%
viability, T/C [30]: 31.8%
viability, T/C [53]: 21%
viability, T/C [54]: 37.7%
viability, T/C [55]: 45.6%
viability, T/C [56]: 31.2%
viability, T/C [35]: 6.68%
viability, T/C [36]: 10.7%
viability, T/C [57]: 13.8%
viability, T/C [58]: 7.94%
viability, T/C [59]: 20%
viability, T/C [60]: 1.67%

Cn1ncnc1[C@H]1c2n[nH]c(=O)c3cc(F)cc(c23)N[C@@H]1c1ccc(F)cc1 + COc1c(OCCCN2CCOCC2)ccc2c3n(c(=NC(=O)c4cnc(N)nc4)nc12)CCN3
IC50 (second compound 0.00316 µM): > 100 nM
IC50 (second compound 0.01 µM): > 100 nM
IC50 (second compound 0.0316 µM): > 100 nM
IC50 (second compound 0.1 µM): > 100 nM
IC50 (second compound 0.316 µM): < 0.316 nM
IC50 (second compound 1 µM): < 0.316 nM
viability, T/C [1]: 97.7%
viability, T/C [2]: 111%
viability, T/C [3]: 97.2%
viability, T/C [4]: 111%
viability, T/C [5]: 90.2%
viability, T/C [6]: 85.9%
viability, T/C [7]: 90.1%
viability, T/C [8]: 92.3%
viability, T/C [9]: 90%
viability, T/C [10]: 78.2%
viability, T/C [11]: 90.9%
viability, T/C [12]: 66.9%
viability, T/C [13]: 94%
viability, T/C [14]: 81.4%
viability, T/C [15]: 89.2%
viability, T/C [16]: 83.9%
viability, T/C [17]: 80.9%
viability, T/C [18]: 79.6%
viability, T/C [19]: 81.1%
viability, T/C [20]: 75.3%
viability, T/C [21]: 75.9%
viability, T/C [22]: 76.7%
viability, T/C [23]: 65.9%
viability, T/C [24]: 66.7%
viability, T/C [25]: 34.7%
viability, T/C [26]: 27.6%
viability, T/C [27]: 36.6%
viability, T/C [28]: 33.9%
viability, T/C [29]: 28.4%
viability, T/C [30]: 35%
viability, T/C [31]: 4.32%
viability, T/C [32]: 8.27%
viability, T/C [33]: 5.26%
viability, T/C [34]: 9.55%
viability, T/C [35]: 11.9%
viability, T/C [36]: 11.5%
